This passage reports TGI results from PubChem BioAssay (NCI).

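Each compound was tested at five concentrations against cells in 96-well plates for 48 hours. TGI: concentration producing complete growth inhibition.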

Test systems include CAKI-1 renal; CCRF-CEM leukemia; KM12 colon; M14 melanoma; PC-3 prostate; SF-268 CNS; TK-10 renal; UACC-257 melanoma; UO-31 renal; NCI-H460 lung.
Test in all cases: NCI anticancer screen, dose series, 48 h

For `N=c1c2sc3nc4ccccc4n3c2ncn1Cc1ccccc1`, the TGI in the test with CAKI-1 renal, with CCRF-CEM leukemia, with KM12 colon, with M14 melanoma, in the test on PC-3 prostate and in the test with SF-268 CNS was over 100 µM each time. The TGI in the test with TK-10 renal, in the test on UACC-257 melanoma and in the test on UO-31 renal was over 100 µM in each case.

As to `O=c1oc2cc(O)ccc2c2[nH]c3cc(O)ccc3c12`, the TGI is over 100 µM in the test with CCRF-CEM leukemia; 53.1 µM with KM12 colon; over 100 µM in the test with M14 melanoma; 96.4 µM in the test on NCI-H460 lung; 64.8 µM with SF-268 CNS; over 100 µM in the test on TK-10 renal. The values for the TGI in the test with UACC-257 melanoma and in the test on UO-31 renal were over 100 µM and 97.5 µM, respectively.

Take `N#C/C(=C\c1ccc(O)c(O)c1)c1c(C#N)c(N)nn1-c1ccccc1`: the TGI is 9.05 µM in the test with CAKI-1 renal; 37.5 µM in the test with CCRF-CEM leukemia; over 100 µM in the test on KM12 colon; 31.9 µM with M14 melanoma; 38.3 µM in the test on NCI-H460 lung; over 100 µM with SF-268 CNS. The TGI in the test on TK-10 renal was over 100 µM; in the test on UACC-257 melanoma it was over 100 µM; with UO-31 renal it was 62 µM.

For `CCOC(=O)NN(C(=O)OCC)c1ccc(N=Nc2ccc(OC)cc2)n1C`, the TGI in the test with KM12 colon was 76.9 µM; in the test with M14 melanoma, 50 µM; in the test on PC-3 prostate, 53.4 µM; with TK-10 renal, over 100 µM; in the test with UACC-257 melanoma it was 56.1 µM; with UO-31 renal, 71 µM.

With `Cc1cc(N(CCC#N)S(=O)(=O)c2ccccc2)ccc1C=Nc1cccc(C(=O)O)c1`, the TGI in the test on CAKI-1 renal, with CCRF-CEM leukemia, in the test with M14 melanoma, in the test on NCI-H460 lung, in the test on SF-268 CNS and in the test with TK-10 renal was over 100 µM throughout. Besides, the TGI in the test with UACC-257 melanoma and with UO-31 renal was over 100 µM in each case.

On to `C/C=C/CC(C(=O)OCC)(N(C)C(=O)OC(C)(C)C)S(=O)(=O)c1ccc(C)cc1` (stereo not drawn), for which the TGI in the test on CAKI-1 renal, in the test with CCRF-CEM leukemia, in the test on KM12 colon, in the test on M14 melanoma, in the test with PC-3 prostate and with SF-268 CNS was over 100 µM in each case. The TGI with TK-10 renal, in the test with UACC-257 melanoma and in the test with UO-31 renal was over 100 µM throughout.

Take `COc1ccc(CN(CCN(C)C)c2ccccn2)cc1` (tested in a mixture with another compound): the TGI in the test on CAKI-1 renal, in the test on CCRF-CEM leukemia, with KM12 colon, in the test with M14 melanoma, in the test with SF-268 CNS and in the test on TK-10 renal was over 100 µM throughout. Moreover, the TGI in the test on UACC-257 melanoma and with UO-31 renal was over 100 µM each time.

With `CC(=O)c1ccc(N2C(=O)C3c4[nH]c5ccccc5c4C4CCC(C(C)(C)C)CC4C3C2=O)cc1` (stereo not drawn), the TGI was over 100 µM in the test on CCRF-CEM leukemia; 67.8 µM in the test with M14 melanoma; 36.7 µM with SF-268 CNS; over 100 µM in the test on UACC-257 melanoma; over 100 µM with UO-31 renal.

With `[N-]=[N+]=CC(=O)C1(C(=O)C=[N+]=[N-])CC1`, the TGI in the test on CCRF-CEM leukemia, in the test on KM12 colon, with M14 melanoma, with NCI-H460 lung, with SF-268 CNS and with TK-10 renal was over 100 µM in each case. The TGI in the test with UACC-257 melanoma and with UO-31 renal was over 100 µM each time.

Turning to `CCN(CC)CC1CCCCN1CC(=O)N1c2cc(Cl)ccc2NC(=O)CC1C` (stereo not drawn), the TGI with CAKI-1 renal, in the test on CCRF-CEM leukemia, in the test on KM12 colon, in the test on M14 melanoma, in the test on NCI-H460 lung and in the test with SF-268 CNS was over 100 µM in each case. Moreover, the TGI in the test with TK-10 renal, with UACC-257 melanoma and in the test with UO-31 renal was over 100 µM each time.

As for `C=CCn1c(-c2cc(C(C)(C)C)c(O)c(C(C)(C)C)c2)cs/c1=N\C(P(=O)(O)O)P(=O)(O)O`, the TGI in the test with CAKI-1 renal, in the test with KM12 colon, in the test with M14 melanoma, in the test with NCI-H460 lung, with PC-3 prostate and in the test with SF-268 CNS was over 100 µM each time. For the same compound, the TGI with TK-10 renal and in the test with UO-31 renal was over 100 µM in each case.

As to `COC1(OC)CC2C(=O)N(Cc3ccccc3)C1C(S(=O)(=O)c1ccccc1)C2C(C)S(=O)(=O)c1ccccc1` (stereo not drawn), the TGI with CAKI-1 renal, in the test on CCRF-CEM leukemia, with KM12 colon, with M14 melanoma, with NCI-H460 lung and in the test on SF-268 CNS was over 100 µM each time. Also, the TGI with TK-10 renal and in the test with UACC-257 melanoma was over 100 µM throughout.

Turning to `CC1CC(=O)Nc2ccc(Cl)cc2N1C(=O)CN1CCC(CCCCN(C)C)CC1` (stereo not drawn), the TGI in the test on CAKI-1 renal, in the test with CCRF-CEM leukemia, in the test on M14 melanoma, in the test on NCI-H460 lung, with SF-268 CNS and with TK-10 renal was over 100 µM throughout. For the same compound, the TGI with UACC-257 melanoma and in the test on UO-31 renal was over 100 µM in each case.

For `C/C=C1\CC(C(=O)OCC)CCCCCCC1=O` (stereo not drawn), the TGI with CAKI-1 renal, in the test with CCRF-CEM leukemia, with KM12 colon, in the test on M14 melanoma, with PC-3 prostate and with SF-268 CNS was over 100 µM throughout. For the same compound, the TGI in the test with TK-10 renal, in the test on UACC-257 melanoma and with UO-31 renal was over 100 µM in each case.

Regarding `CCOC(=O)COc1cc(-c2ccccc2F)nc2cc3c(cc12)OCO3`, the TGI with CAKI-1 renal is over 100 µM; with CCRF-CEM leukemia it was 55.7 µM; in the test with KM12 colon it was over 100 µM; with M14 melanoma, over 100 µM; in the test with PC-3 prostate, over 100 µM; in the test on SF-268 CNS, over 100 µM. The TGI in the test on TK-10 renal and with UACC-257 melanoma was over 100 µM each time.

On to `Cc1ccc(S(=O)(=O)NC(=O)C2S(=O)(=O)OCCOS2(=O)=O)cc1`, for which the TGI in the test on CAKI-1 renal, in the test with CCRF-CEM leukemia, with KM12 colon, in the test with M14 melanoma, in the test on SF-268 CNS and with TK-10 renal was over 100 µM throughout. Further, the TGI with UACC-257 melanoma and in the test on UO-31 renal was over 100 µM in each case.
